Test results as given in US8952024B2, “Herbicidal pyrimidone derivatives” (E I du Pont de Nemours and Company, priority 2009, dated 2015).

Columns and labels:
Assay in all cases: Test B pre-/postemergence plant response
Type in all cases: in vivo
[1] = system: bermudagrass (Cynodon dactylon)
Summary of the method: (§1)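 Visual ratings on a 0–100 scale (100 = complete control) were made versus untreated controls 13–15 days after treatment in a greenhouse. Compounds in surfactant-containing non-phytotoxic solvent were applied preemergence to seeds in loam–sand blend or postemergence to 1- to 4-leaf plants (2–18 cm).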

[2] = system: goosegrass (Eleusine indica)
Summary of the method: as §1

[3] = system: green foxtail (Setaria viridis)
Summary of the method: as §1

[4] = system: johnsongrass (Sorghum halepense)
Summary of the method: as §1

kochia (Kochia scoparia) = system: kochia (Kochia scoparia)
Summary of the method: as §1

[5] = system: lambsquarters (Chenopodium album)
Summary of the method: as §1

[6] = system: large crabgrass (Digitaria sanguinalis)
Summary of the method: as §1

[7] = system: ragweed (common ragweed, Ambrosia elatior)
Summary of the method: as §1

soybean (Glycine max) = system: soybean (Glycine max)
Summary of the method: as §1

[8] = system: velvetleaf (Abutilon theophrasti)
Summary of the method: as §1

[9] = system: wheat (Triticum aestivum)
Summary of the method: as §1

[10] = system: woolly cupgrass (Eriochloa villosa)
Summary of the method: as §1

[11] = system: yellow nutsedge (Cyperus esculentus)
Summary of the method: as §1

[12] = Postemergence, 31 g ai/ha, 0 to 100 scale (0 no effect, 100 complete control)
[13] = Postemergence, 62 g ai/ha, scale 0 to 100 (0 no effect, 100 complete control)
[14] = Postemergence, 125 g ai/ha, scale 0 to 100 (0 no effect, 100 complete control)
[15] = Postemergence, 250 g ai/ha, scale 0 to 100 (0 no effect, 100 complete control), 13 to 15 days
[16] = 31 g ai/ha, postemergence, scale 0 to 100, 0 is no effect, 100 is complete control
[17] = 250 g ai/ha, Preemergence, 0 to 100 scale
[18] = Postemergence, 62 g ai/ha, scale 0 (no effect) to 100 (complete control), 13 to 15 days
[19] = Postemergence, 125 g ai/ha, visual rating after 13 to 15 days, scale 0 (no effect) to 100 (complete control)
[20] = Postemergence, 250 g ai/ha, scale 0 to 100 (0 no effect, 100 complete control)
[21] = Preemergence, 62 g ai/ha, scale 0 to 100 (0 no effect, 100 complete control)
[22] = Preemergence, 125 g ai/ha, scale 0 to 100, 0 no effect, 100 complete control
[23] = Preemergence, 31 g ai/ha, scale 0 to 100 (0 no effect, 100 complete control)
[24] = 62 g ai/ha, postemergence, 0 is no effect, 100 is complete control, 13 to 15 days

SMILES: COCCn1c(-c2cccc(C)c2)ncc(C(=O)C2=C(O)C3CCC(C3)C2=O)c1=O (stereo not drawn) [Compound 233]
- Plant response rating, Bermudagrass [1, 12]: 95
- Plant response rating, Bermudagrass [1, 13]: 95
- Plant response rating, Bermudagrass [1, 14]: 100
- Plant response rating, Bermudagrass [1, 15]: 100
- Plant response rating, Goosegrass [2, 12]: 85
- Plant response rating, Goosegrass [2, 13]: 95
- Plant response rating, Goosegrass [2, 14]: 98
- Plant response rating, Goosegrass [2, 15]: 98
- Plant response rating, Foxtail, Green [3, 12]: 85
- Plant response rating, Foxtail, Green [3, 13]: 90
- Plant response rating, Foxtail, Green [3, 14]: 95
- Plant response rating, Foxtail, Green [3, 15]: 100
- Plant response rating, Johnsongrass [4, 12]: 0
- Plant response rating, Johnsongrass [4, 13]: 5
- Plant response rating, Johnsongrass [4, 14]: 25
- Plant response rating, Johnsongrass [4, 15]: 25
- Plant response rating, Kochia (kochia (Kochia scoparia); [12]): 70
- Plant response rating, Kochia (kochia (Kochia scoparia); [13]): 85
- Plant response rating, Lambsquarters [5, 12]: 98
- Plant response rating, Lambsquarters [5, 13]: 98
- Plant response rating, Lambsquarters [5, 14]: 100
- Plant response rating, Lambsquarters [5, 15]: 100
- Plant response rating, Crabgrass, Large [6, 12]: 80
- Plant response rating, Crabgrass, Large [6, 13]: 90
- Plant response rating, Crabgrass, Large [6, 14]: 98
- Plant response rating, Crabgrass, Large [6, 15]: 100
- Plant response rating, Ragweed [7, 12]: 80
- Plant response rating, Ragweed [7, 13]: 85
- Plant response rating, Ragweed [7, 15]: 98
- Plant response rating, Soybean (soybean (Glycine max); [12]): 98
- Plant response rating, Soybean (soybean (Glycine max); [13]): 98
- Plant response rating, Soybean (soybean (Glycine max); [15]): 100
- Plant response rating, Velvetleaf [8, 12]: 80
- Plant response rating, Velvetleaf [8, 13]: 85
- Plant response rating, Velvetleaf [8, 15]: 100
- Plant response rating, Wheat [9, 12]: 10
- Plant response rating, Wheat [9, 13]: 30
- Plant response rating, Wheat [9, 15]: 65
- Plant response rating, Cupgrass, Woolly [10, 12]: 80
- Plant response rating, Cupgrass, Woolly [10, 13]: 85
- Plant response rating, Cupgrass, Woolly [10, 14]: 100
- Plant response rating, Cupgrass, Woolly [10, 15]: 100
- Plant response rating, Nutsedge, Yellow [11, 12]: 0
- Plant response rating, Nutsedge, Yellow [11, 13]: 5
- Plant response rating, Nutsedge, Yellow [11, 14]: 25
- Plant response rating, Nutsedge, Yellow [11, 15]: 25

SMILES: Cc1cc(-n2c(-c3ccccc3)ncc(C(=O)C3=C(O)CCCC3=O)c2=O)ccc1F [Compound 53]
- Plant response rating, Bermudagrass [1, 16]: 90
- Plant response rating, Bermudagrass [1, 17]: 100
- Plant response rating, Bermudagrass [1, 18]: 95
- Plant response rating, Bermudagrass [1, 19]: 98
- Plant response rating, Bermudagrass [1, 20]: 98
- Plant response rating, Bermudagrass [1, 21]: 100
- Plant response rating, Bermudagrass [1, 22]: 100
- Plant response rating, Goosegrass [2, 16]: 75
- Plant response rating, Goosegrass [2, 17]: 100
- Plant response rating, Goosegrass [2, 18]: 80
- Plant response rating, Goosegrass [2, 19]: 80
- Plant response rating, Goosegrass [2, 20]: 85
- Plant response rating, Goosegrass [2, 23]: 98
- Plant response rating, Goosegrass [2, 21]: 100
- Plant response rating, Goosegrass [2, 22]: 100
- Plant response rating, Foxtail, Green [3, 16]: 95
- Plant response rating, Foxtail, Green [3, 17]: 98
- Plant response rating, Foxtail, Green [3, 18]: 100
- Plant response rating, Foxtail, Green [3, 19]: 100
- Plant response rating, Foxtail, Green [3, 20]: 100
- Plant response rating, Foxtail, Green [3, 23]: 60
- Plant response rating, Foxtail, Green [3, 21]: 60
- Plant response rating, Foxtail, Green [3, 22]: 98
- Plant response rating, Johnsongrass [4, 16]: 55
- Plant response rating, Johnsongrass [4, 17]: 75
- Plant response rating, Johnsongrass [4, 18]: 95
- Plant response rating, Johnsongrass [4, 19]: 95
- Plant response rating, Johnsongrass [4, 20]: 100
- Plant response rating, Johnsongrass [4, 23]: 10
- Plant response rating, Johnsongrass [4, 21]: 55
- Plant response rating, Johnsongrass [4, 22]: 60
- Plant response rating, Kochia (kochia (Kochia scoparia); [16]): 45
- Plant response rating, Kochia (kochia (Kochia scoparia); [18]): 65
- Plant response rating, Kochia (kochia (Kochia scoparia); [19]): 75
- Plant response rating, Kochia (kochia (Kochia scoparia); [20]): 80
- Plant response rating, Lambsquarters [5, 16]: 90
- Plant response rating, Lambsquarters [5, 17]: 100
- Plant response rating, Lambsquarters [5, 18]: 95
- Plant response rating, Lambsquarters [5, 19]: 98
- Plant response rating, Lambsquarters [5, 20]: 98
- Plant response rating, Lambsquarters [5, 23]: 98
- Plant response rating, Lambsquarters [5, 21]: 100
- Plant response rating, Lambsquarters [5, 22]: 100
- Plant response rating, Crabgrass, Large [6, 16]: 85
- Plant response rating, Crabgrass, Large [6, 17]: 100
- Plant response rating, Crabgrass, Large [6, 18]: 95
- Plant response rating, Crabgrass, Large [6, 19]: 95
- Plant response rating, Crabgrass, Large [6, 20]: 100
- Plant response rating, Crabgrass, Large [6, 23]: 75
- Plant response rating, Crabgrass, Large [6, 21]: 100
- Plant response rating, Crabgrass, Large [6, 22]: 100
- Plant response rating, Ragweed [7, 16]: 80
- Plant response rating, Ragweed [7, 18]: 85
- Plant response rating, Ragweed [7, 19]: 95
- Plant response rating, Ragweed [7, 20]: 98
- Plant response rating, Ragweed [7, 23]: 65
- Plant response rating, Ragweed [7, 21]: 75
- Plant response rating, Ragweed [7, 22]: 85
- Plant response rating, Soybean (soybean (Glycine max); [16]): 90
- Plant response rating, Soybean (soybean (Glycine max); [18]): 95
- Plant response rating, Soybean (soybean (Glycine max); [19]): 95
- Plant response rating, Soybean (soybean (Glycine max); [20]): 95
- Plant response rating, Soybean (soybean (Glycine max); [23]): 0
- Plant response rating, Soybean (soybean (Glycine max); [21]): 70
- Plant response rating, Soybean (soybean (Glycine max); [22]): 80
- Plant response rating, Velvetleaf [8, 16]: 85
- Plant response rating, Velvetleaf [8, 18]: 85
- Plant response rating, Velvetleaf [8, 19]: 95
- Plant response rating, Velvetleaf [8, 20]: 98
- Plant response rating, Velvetleaf [8, 23]: 80
- Plant response rating, Velvetleaf [8, 21]: 98
- Plant response rating, Velvetleaf [8, 22]: 98
- Plant response rating, Wheat [9, 16]: 20
- Plant response rating, Wheat [9, 18]: 25
- Plant response rating, Wheat [9, 19]: 30
- Plant response rating, Wheat [9, 20]: 50
- Plant response rating, Wheat [9, 23]: 0
- Plant response rating, Wheat [9, 21]: 0
- Plant response rating, Wheat [9, 22]: 0
- Plant response rating, Cupgrass, Woolly [10, 16]: 65
- Plant response rating, Cupgrass, Woolly [10, 17]: 95
- Plant response rating, Cupgrass, Woolly [10, 18]: 90
- Plant response rating, Cupgrass, Woolly [10, 19]: 95
- Plant response rating, Cupgrass, Woolly [10, 20]: 98
- Plant response rating, Cupgrass, Woolly [10, 23]: 0
- Plant response rating, Cupgrass, Woolly [10, 21]: 55
- Plant response rating, Cupgrass, Woolly [10, 22]: 85
- Plant response rating, Nutsedge, Yellow [11, 16]: 20
- Plant response rating, Nutsedge, Yellow [11, 18]: 65
- Plant response rating, Nutsedge, Yellow [11, 19]: 75
- Plant response rating, Nutsedge, Yellow [11, 20]: 75
- Plant response rating, Nutsedge, Yellow [11, 23]: 65
- Plant response rating, Nutsedge, Yellow [11, 21]: 80
- Plant response rating, Nutsedge, Yellow [11, 22]: 90

SMILES: CCCn1c(-c2cc(F)cc(F)c2)ncc(C(=O)C2=C(O)CCCC2=O)c1=O [Compound 152]
- Bermudagrass plant response rating (0 to 100 scale) [1, 24]: 95
- Plant response rating, Bermudagrass [1, 12]: 95
- Plant response rating, Bermudagrass [1, 14]: 98
- Plant response rating, Bermudagrass [1, 15]: 98
- Goosegrass plant response rating (0 to 100 scale) [2, 24]: 85
- Plant response rating, Goosegrass [2, 12]: 80
- Plant response rating, Goosegrass [2, 14]: 95
- Plant response rating, Goosegrass [2, 15]: 98
- Foxtail, Green plant response rating (0 to 100 scale) [3, 24]: 75
- Plant response rating, Foxtail, Green [3, 12]: 75
- Plant response rating, Foxtail, Green [3, 14]: 98
- Plant response rating, Foxtail, Green [3, 15]: 100
- Johnsongrass plant response rating (0 to 100 scale) [4, 24]: 90
- Plant response rating, Johnsongrass [4, 12]: 70
- Plant response rating, Johnsongrass [4, 14]: 95
- Plant response rating, Johnsongrass [4, 15]: 100
- Kochia plant response rating (0 to 100 scale) (kochia (Kochia scoparia); [24]): 65
- Plant response rating, Kochia (kochia (Kochia scoparia); [12]): 10
- Plant response rating, Kochia (kochia (Kochia scoparia); [14]): 95
- Plant response rating, Kochia (kochia (Kochia scoparia); [15]): 100
- Lambsquarters plant response rating (0 to 100 scale) [5, 24]: 95
- Plant response rating, Lambsquarters [5, 12]: 85
- Plant response rating, Lambsquarters [5, 14]: 98
- Plant response rating, Lambsquarters [5, 15]: 100
- Crabgrass, Large plant response rating (0 to 100 scale) [6, 24]: 85
- Plant response rating, Crabgrass, Large [6, 12]: 75
- Plant response rating, Crabgrass, Large [6, 14]: 95
- Plant response rating, Crabgrass, Large [6, 15]: 95
- Ragweed plant response rating (0 to 100 scale) [7, 24]: 80
- Plant response rating, Ragweed [7, 12]: 60
- Plant response rating, Ragweed [7, 14]: 95
- Plant response rating, Ragweed [7, 15]: 98
- Soybean plant response rating (0 to 100 scale) (soybean (Glycine max); [24]): 70
- Plant response rating, Soybean (soybean (Glycine max); [12]): 70
- Plant response rating, Soybean (soybean (Glycine max); [14]): 98
- Plant response rating, Soybean (soybean (Glycine max); [15]): 100
- Velvetleaf plant response rating (0 to 100 scale) [8, 24]: 95
- Plant response rating, Velvetleaf [8, 12]: 85
- Plant response rating, Velvetleaf [8, 14]: 100
- Plant response rating, Velvetleaf [8, 15]: 100
- Wheat plant response rating (0 to 100 scale) [9, 24]: 50
- Plant response rating, Wheat [9, 12]: 35
- Plant response rating, Wheat [9, 14]: 85
- Plant response rating, Wheat [9, 15]: 90
- Cupgrass, Woolly plant response rating (0 to 100 scale) [10, 24]: 98
- Plant response rating, Cupgrass, Woolly [10, 12]: 95
- Plant response rating, Cupgrass, Woolly [10, 14]: 98
- Plant response rating, Cupgrass, Woolly [10, 15]: 100
- Nutsedge, Yellow plant response rating (0 to 100 scale) [11, 24]: 75
- Plant response rating, Nutsedge, Yellow [11, 12]: 65
- Plant response rating, Nutsedge, Yellow [11, 14]: 80
- Plant response rating, Nutsedge, Yellow [11, 15]: 80
